Reference: publication doi:10.1101/2024.02.20.581179v1, “Regulated mRNA recruitment in dinoflagellates is reflected in hyper-variable mRNA spliced leaders and novel eIF4Es” (biorxiv, 2024)

What was measured:
Assay type in all cases: binding
eIF4E-1a = target: T1, eIF4E-1a (Amphidinium carterae, UniProt A0A0X9W7I2); assay: SPR, Biacore T-200, steady state
T1 construct: N-terminal GST tag (TEV site), pGEX-4T(MCS)-TEV, E. coli Rosetta(DE3)pLysS, DTT treated, GST-fusion dimer by gel filtration; tag kept
T1 sequence (A0A0X9W7I2 1-233): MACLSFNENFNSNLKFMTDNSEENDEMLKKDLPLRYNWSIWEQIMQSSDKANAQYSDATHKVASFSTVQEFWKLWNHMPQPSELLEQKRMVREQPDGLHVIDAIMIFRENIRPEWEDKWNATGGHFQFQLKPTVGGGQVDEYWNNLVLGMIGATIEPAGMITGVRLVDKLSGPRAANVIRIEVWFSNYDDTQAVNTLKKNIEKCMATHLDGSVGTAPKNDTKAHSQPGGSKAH

mouse eIF4E-1 [1] = target: T2, mouse eIF4E-1 (Mus musculus, UniProt P63073); assay: SPR, Biacore T-200, steady state
T2 construct: N-terminal GST tag, E. coli, GST-fusion dimer, tag kept
T2 sequence (P63073 2-217): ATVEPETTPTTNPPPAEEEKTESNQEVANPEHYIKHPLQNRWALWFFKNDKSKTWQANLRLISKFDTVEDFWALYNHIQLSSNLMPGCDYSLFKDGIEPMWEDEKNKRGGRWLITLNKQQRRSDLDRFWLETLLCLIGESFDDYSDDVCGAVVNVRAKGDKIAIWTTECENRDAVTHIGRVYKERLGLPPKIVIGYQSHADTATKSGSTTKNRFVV

eIF4E-1d1 [2] = target: T3, eIF4E-1d1 (Amphidinium carterae, UniProt A0A0X9VJN7); assay: SPR, Biacore T-200, steady state
T3 construct: gene eIF4E-1d; N-terminal GST tag (TEV site), E. coli, GST-fusion dimer, tag kept (SPR); S-tagged in vitro translated protein in bead assay
T3 sequence (A0A0X9VJN7 1-239): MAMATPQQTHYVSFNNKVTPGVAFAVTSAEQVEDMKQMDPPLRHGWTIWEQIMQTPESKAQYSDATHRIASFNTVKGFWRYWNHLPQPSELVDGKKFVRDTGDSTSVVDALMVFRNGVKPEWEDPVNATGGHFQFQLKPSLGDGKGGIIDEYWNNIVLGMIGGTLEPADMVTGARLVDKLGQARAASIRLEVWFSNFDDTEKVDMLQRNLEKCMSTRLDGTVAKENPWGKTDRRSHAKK

eIF4E-2a = target: T4, eIF4E-2a (Amphidinium carterae, UniProt A0A109QBD6); assay: SPR, Biacore T-200, steady state
T4 construct: N-terminal GST tag (TEV site), E. coli, GST-fusion dimer, tag kept
T4 sequence (A0A109QBD6 1-255): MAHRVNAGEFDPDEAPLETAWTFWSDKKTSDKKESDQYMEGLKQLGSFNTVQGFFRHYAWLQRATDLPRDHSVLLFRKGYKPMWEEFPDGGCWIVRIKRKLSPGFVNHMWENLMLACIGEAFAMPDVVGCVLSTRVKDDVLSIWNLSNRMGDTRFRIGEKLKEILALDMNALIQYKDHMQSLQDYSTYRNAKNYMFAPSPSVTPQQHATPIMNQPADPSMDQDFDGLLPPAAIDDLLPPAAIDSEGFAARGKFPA
Source text: SPR, Biacore T-200, steady state on eIF4E-2a

eIF4E-1c = target: T5, eIF4E-1c (Amphidinium carterae, UniProt A0A0X9VF44); assay: cap-Sepharose pull-down of […] in vitro translated protein; settings: ligand immobilised on Sepharose; S-tagged protein; 25 mM HEPES/KOH pH 7.2, 150 mM KCl, 200 μM GTP, 4 °C
T5 construct: N-terminal S-tag, pCITE-4a, in vitro transcription/translation in rabbit reticulocyte lysate, 35S-Met labelled
T5 sequence (A0A0X9VF44 1-244): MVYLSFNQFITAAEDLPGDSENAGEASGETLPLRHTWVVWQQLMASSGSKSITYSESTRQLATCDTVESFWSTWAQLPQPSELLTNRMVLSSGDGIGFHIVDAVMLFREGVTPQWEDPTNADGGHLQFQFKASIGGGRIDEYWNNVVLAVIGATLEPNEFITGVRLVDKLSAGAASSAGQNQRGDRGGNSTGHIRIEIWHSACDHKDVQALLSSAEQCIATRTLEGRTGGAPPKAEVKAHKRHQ

eIF4E-1d1 [3] = target: T3, eIF4E-1d1; assay: as above; settings: ligand immobilised on Sepharose; S-tagged protein; 25 mM HEPES/KOH pH 7.2, 150 mM KCl, 200 μM GTP, 4 °C
mouse eIF4E-1 [4] = target: T2, mouse eIF4E-1; assay: SPR, Biacore T-200, kinetic fit
Source text: SPR, Biacore T-200, kinetic fit on mouse eIF4E-1

eIF4E-1d1 [5] = target: T3, eIF4E-1d1; assay: SPR, Biacore T-200, kinetic fit
Source text: SPR, Biacore T-200, kinetic fit on eIF4E-1d1

SMILES	Kd (eIF4E-1a) [µM]	Kd (mouse eIF4E-1 [1]) [µM]	Kd (eIF4E-1d1 [2]) [µM]	Kd (eIF4E-2a) [µM]	cap-Sepharose pull-down of 35S in vitro translated protein (eIF4E-1c)	cap-Sepharose pull-down of 35S in vitro translated protein (eIF4E-1d1 [3])	Kd (mouse eIF4E-1 [4]) [µM]	Kd (eIF4E-1d1 [5]) [µM]
Nc1nc2c(ncn2[C@@H]2O[C@H](COP(=O)(O)OP(=O)(O)OP(=O)(O)OC[C@H]3O[C@@H](n4cnc5c(=O)[nH]c(N)nc54)[C@H](O)[C@@H]3O)[C@@H](O)[C@H]2O)c(=O)[nH]1 [GpppG]	1730 ± 3700	316 ± 38	1010 ± 110	665 ± 19				
CN(C)c1nc2c(c(=O)[nH]1)[n+](C)cn2[C@@H]1O[C@H](COP(=O)(O)OP(=O)(O)OP(=O)(O)O)[C@@H](O)[C@H]1O [TMG]					eIF4E-1c and eIF4E-1d1 showed some affinity for the TMG cap analogue	eIF4E-1c and eIF4E-1d1 showed some affinity for the TMG cap analogue		
C[n+]1cn([C@@H]2O[C@H](COP(=O)(O)OP(=O)(O)OP(=O)(O)OC[C@H]3O[C@@H](n4ccc(N)nc4=O)[C@H](O)[C@@H]3O)[C@@H](O)[C@H]2O)c2nc(N)[nH]c(=O)c21 [m^7GpppC]	10.8 ± 3.1						69.8	82.4
C[n+]1cn([C@@H]2O[C@H](COP(=O)(O)OP(=O)(O)OP(=O)(O)OC[C@H]3O[C@@H](n4cnc5c(=O)[nH]c(N)nc54)[C@H](O)[C@@H]3O)[C@@H](O)[C@H]2O)c2nc(N)[nH]c(=O)c21 [m^7GpppG]	17.5 ± 4.68	59.7 ± 49.3	34.5 ± 18.6	469 ± 220				
